Columns and labels:
Assay type in all cases: cell-based
SARS-CoV-2 variant G614 [1] = test system: SARS-CoV-2 variant G614
SARS-CoV-2 variant G614 [2] = test system: SARS-CoV-2 variant G614; remark: listed apart in the source
SARS-CoV-2 strain FFM3 = experiment: microbe, parasite or virus in culture; details: Severe acute respiratory syndrome coronavirus 2, read-out: IC50 concentration

Structure (SMILES) | effect on SARS-CoV-2 replication and CPE formation (SARS-CoV-2 variant G614 [1]) | effect on caspase 3/7 activity (SARS-CoV-2 variant G614 [2]) | IC50 (SARS-CoV-2 strain FFM3) [µM]
C[C@H](NC(=O)C(=O)Nc1ccccc1C(C)(C)C)C(=O)N[C@@H](CC(=O)O)C(=O)COc1c(F)c(F)cc(F)c1F [emricasan] | did not interfere with SARS-CoV-2 replication and CPE formation | suppressing caspase 3/7 activity | 
CCC(CC)COC(=O)[C@H](C)N[P@](=O)(OC[C@H]1O[C@@](C#N)(c2ccc3c(N)ncnn23)[C@H](O)[C@@H]1O)Oc1ccccc1 [remdesivir] |  |  | 0.5
